Test [1] concerns the target T1, SARS-CoV-2 PLpro (nsp3 1564–1878) (Severe acute respiratory syndrome coronavirus 2, UniProt P0DTD1). In words: biochemical. More on the design: FRET-quenched peptide (Pro3) cleavage by PLpro, 10 min pre-incubation, slope over 20 min, normalised to no-compound control. The note with it: low concentration screen, read-out: % of control remaining.
Test [2] has as its target T1, SARS-CoV-2 PLpro (nsp3 1564–1878). In words: biochemical. The note with it: high concentration screen, read-out: % of control remaining. Details: FRET-quenched peptide (Pro3) cleavage by PLpro, 10 min pre-incubation, slope over 20 min, normalised to no-compound control.

Structures can show the parent of a compound that is named as a salt. Where two headings read alike, the source gives them in different places.

As for `O=C1CC[C@@]2(O)[C@H]3Cc4ccc(O)c5c4[C@@]2(CCN3CC2CC2)[C@H]1O5` [Naltrexone hydrochloride], in test [1] (Well no.=997), the remaining activity at 1.25 µM turned out to be 97.6%. For the same compound, the remaining activity at 3.75 µM in test [2] (Well no.=997) was 100%.

Take `O=C1CC[C@@]2(O)[C@H]3Cc4ccc(O)c5c4[C@@]2(CCN3CC2CC2)[C@H]1O5` [Naltrexone.HCl]: the remaining activity at 1.25 µM in test [1] (Well no.=1883) was found to be 88.3%. In addition, the remaining activity at 3.75 µM in test [2] (Well no.=1883) came to 92.8%.

For `Oc1ccc2c3c1O[C@H]1c4oc5ccccc5c4C[C@@]4(O)[C@@H](C2)N(CC2CC2)CC[C@]314` [Naltriben methanesulfonate hydrate], the remaining activity at 1.25 µM in test [1] (Well no.=1698) came out at 95.8%. In test [2] (Well no.=1698), the remaining activity at 3.75 µM was 95.9%.

On to `Oc1ccc2c3c1O[C@H]1c4oc5ccccc5c4C[C@@]4(O)[C@@H](C2)N(CC2CC2)CC[C@]314` [Naltriben methanesulfonate], for which, in test [1] (Well no.=1036), the remaining activity at 1.25 µM amounted to 92.8%. Besides, the remaining activity at 3.75 µM in test [2] (Well no.=1036) was determined as 97.4%.

As for `Oc1ccc2c3c1O[C@H]1c4[nH]c5ccccc5c4C[C@@]4(O)[C@@H](C2)N(CC2CC2)CC[C@]314` [Naltrindole (hydrochloride)], the remaining activity at 1.25 µM in test [1] (Well no.=7227) worked out at 103%. Moreover, the remaining activity at 3.75 µM in test [2] (Well no.=7227) came to 97.5%.

Take `Oc1ccc2c3c1O[C@H]1c4[nH]c5ccccc5c4C[C@@]4(O)[C@@H](C2)N(CC2CC2)CC[C@]314` [Naltrindole hydrochloride]: in test [1] (Well no.=1053), the remaining activity at 1.25 µM is 92.8%. The remaining activity at 3.75 µM in test [2] (Well no.=1053) stood at 93.2%.

Regarding `Oc1ccc2c3c1O[C@H]1c4[nH]c5ccccc5c4C[C@@]4(O)[C@@H](C2)N(CC2CC2)CC[C@]314` [Naltrindole.HCl], the remaining activity at 1.25 µM in test [1] (Well no.=1644) came to 106%. In addition, the remaining activity at 3.75 µM in test [2] (Well no.=1644) was determined as 104%.

As for `CNC(=O)[C@H]1O[C@@H](n2cnc3c(NCc4cccc(I)c4)nc(Cl)nc32)[C@H](O)[C@@H]1O` [Namodenoson], the remaining activity at 1.25 µM in test [1] (Well no.=8451) is 104%. Further, the remaining activity at 3.75 µM in test [2] (Well no.=8451) is 104%.

As for `CO[C@H]1CC[C@@H](O[C@H]2C[C@H]([C@]3(C)CC[C@]4(C[C@H](O)[C@@H](C)[C@@H]([C@@H](C)/C=C(\C)C(=O)[C@H](C)C[C@H](C)C(=O)O)O4)O3)O[C@]3(O[C@@H]([C@H]4O[C@@](O)(CO)[C@H](C)C[C@@H]4C)C[C@@H]3C)[C@@H]2C)O[C@@H]1C` [Nanchangmycin], the remaining activity at 1.25 µM in test [1] (Well no.=4861) turned out to be 101%. Also, the remaining activity at 3.75 µM in test [2] (Well no.=4861) came to 104%.

For `c1ccc2c(CC3=NCCN3)cccc2c1` [Naphazoline (hydrochloride)], the remaining activity at 1.25 µM in test [1] (Well no.=7529) was 96.6%. Moreover, the remaining activity at 3.75 µM in test [2] (Well no.=7529) worked out at 97.5%.

Take `c1ccc2c(CC3=NCCN3)cccc2c1` [Naphazoline]: in test [1] (Well no.=2007), the remaining activity at 1.25 µM worked out at 105%. Moreover, the remaining activity at 3.75 µM in test [2] (Well no.=2007) turned out to be 103%.

Regarding `COc1ccc2cc([C@H](C)C(=O)O)ccc2c1` [Naproxen], the remaining activity at 1.25 µM in test [1] (Well no.=1869) came to 90.4%. The remaining activity at 3.75 µM in test [2] (Well no.=1869) is 87.1%.

For the compound `CC[C@@H](C(=O)O)[C@@H]1O[C@@H]([C@@H](C)[C@H](O)[C@H](C)C(=O)[C@H](CC)[C@H]2O[C@]3(C=C[C@@H](O)[C@]4(CC[C@@](C)([C@H]5CC[C@](O)(CC)[C@H](C)O5)O4)O3)[C@H](C)C[C@@H]2C)[C@@H](C)C[C@@H]1C` [Narasin], in test [1] (Well no.=3258), the remaining activity at 1.25 µM was found to be 94.4%. In test [2] (Well no.=3258), the remaining activity at 3.75 µM amounted to 96%.

Turning to `CNS(=O)(=O)CCc1ccc2[nH]cc(C3CCN(C)CC3)c2c1` [Naratriptan (hydrochloride)], the remaining activity at 1.25 µM in test [1] (Well no.=7385) worked out at 100%. Moreover, the remaining activity at 3.75 µM in test [2] (Well no.=7385) was 100%.

Consider `CNS(=O)(=O)CCc1ccc2[nH]cc(C3CCN(C)CC3)c2c1` [Naratriptan HCl], for which, in test [1] (Well no.=4909), the remaining activity at 1.25 µM was determined as 97.9%. Moreover, in test [2] (Well no.=4909), the remaining activity at 3.75 µM worked out at 99.8%.

With `O=C1C[C@@H](c2ccc(O)cc2)Oc2cc(O)cc(O)c21` [Naringenin], the remaining activity at 1.25 µM in test [1] (Well no.=3326) worked out at 96.4%. Also, the remaining activity at 3.75 µM in test [2] (Well no.=3326) came to 98.3%.

Consider `C[C@@H]1O[C@@H](O[C@H]2[C@H](Oc3cc(O)c(C(=O)CCc4ccc(O)cc4)c(O)c3)O[C@H](CO)[C@@H](O)[C@@H]2O)[C@H](O)[C@H](O)[C@H]1O` [Naringin Dihydrochalcone], for which, in test [1] (Well no.=8148), the remaining activity at 1.25 µM was 106%. Further, the remaining activity at 3.75 µM in test [2] (Well no.=8148) turned out to be 97.1%.

As to `C[C@@H]1O[C@@H](O[C@H]2[C@H](Oc3cc(O)c4c(c3)O[C@H](c3ccc(O)cc3)CC4=O)O[C@H](CO)[C@@H](O)[C@@H]2O)[C@H](O)[C@H](O)[C@H]1O` [Naringin], the remaining activity at 1.25 µM in test [1] (Well no.=3665) was determined as 98.4%; in test [1] (Well no.=8098), 97.4%. The figures for the remaining activity at 3.75 µM in test [2] (Well no.=3665) and in test [2] (Well no.=8098) were 99.9% and 97.5%, respectively.

As to `C[C@@H]1O[C@@H](OC[C@H]2O[C@@H](Oc3cc(O)c4c(c3)O[C@H](c3ccc(O)cc3)CC4=O)[C@H](O)[C@@H](O)[C@@H]2O)[C@H](O)[C@H](O)[C@H]1O` [Narirutin], the remaining activity at 1.25 µM in test [1] (Well no.=3347) stood at 91.9%. Further, the remaining activity at 3.75 µM in test [2] (Well no.=3347) is 93.8%.

Regarding `CC(C)[C@H]1CC[C@H](C(=O)N[C@H](Cc2ccccc2)C(=O)O)CC1` [Nateglinide], the remaining activity at 1.25 µM amounted to 103% in test [1] (Well no.=1546) and 102% in test [1] (Well no.=7504). Besides, the remaining activity at 3.75 µM in test [2] (Well no.=1546) was determined as 103%; in test [2] (Well no.=7504), 102%.

Consider `CC[C@@H](Nc1c(Nc2cccc(C(=O)N(C)C)c2O)c(=O)c1=O)c1ccc(C)o1` [Navarixin], for which the remaining activity at 1.25 µM in test [1] (Well no.=8175) stood at 105%. In addition, the remaining activity at 3.75 µM in test [2] (Well no.=8175) amounted to 101%.

With `CC1(C)CCC(c2ccc(Cl)cc2)=C(CN2CCN(c3ccc(C(=O)NS(=O)(=O)c4ccc(N[C@H](CCN5CCOCC5)CSc5ccccc5)c(S(=O)(=O)C(F)(F)F)c4)cc3)CC2)C1` [Navitoclax], the results for the remaining activity at 1.25 µM in test [1] (Well no.=6580) and in test [1] (Well no.=8224) were 93.1% and 103%, respectively. Also, the remaining activity at 3.75 µM in test [2] (Well no.=6580) was 92.2%; in test [2] (Well no.=8224) it was 94.8%.

For the compound `O[C@H](CNC[C@@H](O)[C@H]1CCc2cc(F)ccc2O1)[C@@H]1CCc2cc(F)ccc2O1` [Nebivolol (hydrochloride)], the remaining activity at 1.25 µM in test [1] (Well no.=8139) turned out to be 105%. For the same compound, the remaining activity at 3.75 µM in test [2] (Well no.=8139) came to 102%.

With `CN1C(=O)N[C@@H](Cc2c[nH]c3c(Cl)cccc23)C1=O` [Necrostatin 2 (S enantiomer)], the remaining activity at 1.25 µM in test [1] (Well no.=7166) was 97.6%. Also, the remaining activity at 3.75 µM in test [2] (Well no.=7166) amounted to 94.3%.

For `CN1C(=O)N[C@H](Cc2c[nH]c3c(Cl)cccc23)C1=O` [Necrostatin 2], in test [1] (Well no.=6916), the remaining activity at 1.25 µM was determined as 99.4%. The remaining activity at 3.75 µM in test [2] (Well no.=6916) turned out to be 98.6%.

`CN1C(=O)C(Cc2c[nH]c3ccccc23)NC1=S` (centres unmarked) [Necrostatin-1]: the remaining activity at 1.25 µM in test [1] (Well no.=2493) came out at 95.6%; in test [1] (Well no.=6196), 92.6%; in test [1] (Well no.=8505) it was 109%. The remaining activity at 3.75 µM amounted to 98.6% in test [2] (Well no.=2493), 92.5% in test [2] (Well no.=6196) and 104% in test [2] (Well no.=8505).

Source of the values: PMC8286840, “Identifying SARS-CoV-2 antiviral compounds by screening for small molecule inhibitors of Nsp3 papain-like protease” (Biochemical Journal, 2021).
